The source made the active and inactive calls. No cut-off for these calls is given here. Square brackets hold non-standard residues; d marks the D form. Peptide text beside a SMILES is read from it. ξ: configuration not given here. Thr(3ξ) = CC(O)[C@H](N)C(=O)O; NMeV = CN[C@H](C(=O)O)C(C)C; NMeA = CN[C@@H](C)C(=O)O; Sar = CNCC(=O)O
Key:
A-375 [1] = test: Inhibition of cell migration in human A-375 cells assessed as reduction in cell numbers in wound area at 5 nM incubated for 72 hrs by methyl green staining based scratch assay; format: functional
A-375 [2] = test: Inhibition of cell migration in human A-375 cells assessed as decrease in number of cell migration into lower compartment at 50 nM measured after 16 hrs; format: functional, cell-based
A-375 [3] = test: Antiproliferative activity against human A-375 cells assessed as reduction in cell viability incubated for 72 hrs by MTT assay; format: functional, cell-based
A-375 [4] = test: Induction of apoptosis in human A-375 cells assessed as increase in caspase-3 activity at 50 nM incubated for 24 hrs; format: functional, cell-based
HaCaT = test: Antiproliferative activity against human HaCaT cells assessed as reduction in cell viability incubated for 72 hrs by MTT assay; format: functional, cell-based

Compound | inhibition (A-375 [1]) | inhibition (A-375 [2]) | Activity (A-375 [3]) | Activity (A-375 [4]) | Activity (HaCaT)
CC(C)[C@@H]1NC(=O)[C@H](C(C)C)N(C)C(=O)[C@H](C)NC(=O)[C@H]([C@H](C)O)N(C)C(=O)[C@H](C(C)C)NC(=O)[C@@H]2CCCN2C(=O)[C@H](C(C)C)NC(=O)[C@H](C)N(C)C(=O)[C@H](C(C)C)N(C)C(=O)CN(C)C(=O)[C@H](C)NC(=O)[C@H](C(C)C)N(C)C(=O)[C@H](C)NC(=O)[C@H](C(C)C)N(C)C(=O)[C@H](C(C)C)NC(=O)[C@H](C(C)C)N(C)C(=O)[C@H](C(C)C)NC(=O)[C@H](C(C)C)N(C)C1=O | Active; Significant Effect Observed | Active | Dose-dependent-effect | Active | Dose-dependent-effect
CC(C)[C@@H]1NC(=O)[C@H](C(C)C)N(C)C(=O)[C@H]([C@@H](C)O)NC(=O)[C@H](C(C)C)N(C)C(=O)[C@H](C(C)C)NC(=O)[C@H](C(C)C)N(C)C(=O)[C@H](C(C)C)NC(=O)[C@H](C(C)C)N(C)C(=O)[C@H](C(C)C)NC(=O)[C@H](C(C)C)N(C)C(=O)[C@H](C)NC(=O)[C@@H]([C@@H](C)O)N(C)C(=O)[C@H](C(C)C)NC(=O)[C@@H]2CCCN2C(=O)[C@H](C)NC(=O)[C@H](C)N(C)C(=O)[C@H](C(C)C)N(C)C(=O)CN(C)C1=O | Active; Significant Effect Observed | Active | Dose-dependent-effect | Active | Dose-dependent-effect
CC(C)[C@@H]1NC(=O)[C@H](C(C)C)N(C)C(=O)[C@H](C)NC(=O)[C@H](C(C)C)N(C)C(=O)[C@H](C(C)C)NC(=O)[C@H](C(C)C)N(C)C(=O)[C@H](C(C)C)NC(=O)[C@H](C(C)C)N(C)C(=O)[C@H](CO)NC(=O)[C@H](C(C)C)N(C)C(=O)[C@H](C)NC(=O)[C@H](C(C)C)N(C)C(=O)[C@H](C)NC(=O)CN(C)C(=O)[C@H](C(C)C)NC(=O)[C@H](C)N(C)C(=O)[C@H](C(C)C)N(C)C(=O)CN(C)C1=O (cyclo(A[NMeV]A[NMeV]S[NMeV]V[NMeV]V[NMeV]A[NMeV]V[Sar][NMeV][NMeA]V[Sar])) | Active; Significant Effect Observed | Active | Dose-dependent-effect | Active; Significant Effect Was Not Observed | Dose-dependent-effect
CC(C)[C@@H]1NC(=O)[C@H](C(C)C)N(C)C(=O)[C@H](C)NC(=O)[C@H](C(C)C)N(C)C(=O)[C@H](C(C)C)NC(=O)[C@H](C(C)C)N(C)C(=O)[C@H](C(C)C)NC(=O)[C@H](C(C)C)N(C)C(=O)[C@H](C(C)O)NC(=O)[C@H](C(C)C)N(C)C(=O)[C@H](C)NC(=O)[C@H](C(C)C)N(C)C(=O)[C@H](C)NC(=O)CN(C)C(=O)[C@H](C(C)C)NC(=O)[C@H](C)N(C)C(=O)[C@H](C(C)C)N(C)C(=O)CN(C)C1=O (stereo not given in full) (cyclo(A[NMeV]A[NMeV][Thr(3ξ)][NMeV]V[NMeV]V[NMeV]A[NMeV]V[Sar][NMeV][NMeA]V[Sar])) | Active; Significant Effect Observed | Active | Dose-dependent-effect | Active | Dose-dependent-effect
